What was measured:
[1] = biological target: T1, Peptidyl-prolyl cis-trans isomerase A (Homo sapiens, UniProt P62937); experiment: Binding affinity to PPIA (unknown origin) assessed as dissociation constant
[2] = Toxicity in BALB/c mouse implanted with mouse CT26 cells assessed as histopathological change in lung at 45 mg/kg, ip qd treated for 14 days by H and E staining based analysis; type: organism-based; settings: in vivo, 336 h, time 14 day
SW480 = experiment: Antiproliferative activity against human SW480 cells assessed as inhibition of cell viability incubated for 48 hrs by CCK8 assay; type: functional, cell-based; settings: SW480, 48 h
[3] = Toxicity in BALB/c mouse implanted with mouse CT26 cells assessed as histopathological change in heart at 45 mg/kg, ip qd treated for 14 days by H and E staining based analysis; type: organism-based; settings: in vivo, 336 h, time 14 day
CT26 = experiment: Antiproliferative activity against mouse CT26 cells assessed as inhibition of cell viability incubated for 48 hrs by CCK8 assay; type: functional, cell-based; settings: CT26, 48 h
[4] = Toxicity in BALB/c mouse implanted with mouse CT26 cells assessed as histopathological change in spleen at 45 mg/kg, ip qd treated for 14 days by H and E staining based analysis; type: organism-based; settings: in vivo, 336 h, time 14 day
PANC-1 = experiment: Antiproliferative activity against human PANC-1 cells assessed as inhibition of cell viability incubated for 48 hrs by CCK8 assay; type: functional, cell-based; settings: PANC-1, 48 h
HepG2 = experiment: Antiproliferative activity against human HepG2 cells assessed as inhibition of cell viability incubated for 48 hrs by CCK8 assay; type: functional, cell-based; settings: HepG2, 48 h
[5] = Toxicity in BALB/c mouse implanted with mouse CT26 cells assessed as change in body weight at 45 mg/kg, ip qd treated for 14 days; type: organism-based; settings: in vivo, 336 h, time 14 day
HeLa = experiment: Antiproliferative activity against human HeLa cells assessed as inhibition of cell viability incubated for 48 hrs by CCK8 assay; type: functional, cell-based
[6] = Toxicity in BALB/c mouse implanted with mouse CT26 cells assessed as histopathological change in kidney at 45 mg/kg, ip qd treated for 14 days by H and E staining based analysis; type: organism-based; settings: in vivo, 336 h, time 14 day
[7] = Toxicity in BALB/c mouse implanted with mouse CT26 cells assessed as histopathological change in liver at 45 mg/kg, ip qd treated for 14 days by H and E staining based analysis; type: organism-based; settings: in vivo, 336 h, time 14 day
HCT-116 = experiment: Antiproliferative activity against human HCT-116 cells assessed as inhibition of cell viability incubated for 48 hrs by CCK8 assay; type: functional, cell-based; settings: HCT-116, 48 h
MCF7 = experiment: Antiproliferative activity against human MCF7 cells assessed as inhibition of cell viability incubated for 48 hrs by CCK8 assay; type: functional, cell-based; settings: MCF7, 48 h
[8] = biological target: T1, Peptidyl-prolyl cis-trans isomerase A; experiment: Inhibition of PPIA (unknown origin) using N-succinyl-Ala-Ala-Pro-Phe-p-nitroanilide as substrate preincubated for 1 hr followed by substrate addition measured for 6 mins by absorbance based assay
[9] = biological target: T1, Peptidyl-prolyl cis-trans isomerase A; experiment: Inhibition of PPIA (unknown origin)

T1 sequence (P62937 whole entry): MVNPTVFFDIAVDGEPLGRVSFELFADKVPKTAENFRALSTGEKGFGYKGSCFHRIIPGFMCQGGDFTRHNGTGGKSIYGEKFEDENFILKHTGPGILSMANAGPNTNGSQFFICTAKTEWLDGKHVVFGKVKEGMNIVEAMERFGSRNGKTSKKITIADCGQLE

Question: Which Kd [1] does the source give for `C/C=C/C[C@@H](C)[C@@H](O)[C@H]1C(=O)N[C@@H](CC)C(=O)N(C)[C@H](C)C(=O)N(CC)[C@@H](C(C)C)C(=O)N[C@@H](C(C)C)C(=O)N(C)[C@@H](CC(C)C)C(=O)N[C@@H](C)C(=O)N[C@H](C)C(=O)N(C)[C@@H](CC(C)C)C(=O)N(C)[C@@H](CC(C)C)C(=O)N(C)[C@@H](C(C)C)C(=O)N1C` [ALISPORIVIR] here?
Answer: 0.008 µM

Question: With `O=c1[nH]cc(F)c(=O)[nH]1` [FLUOROURACIL] as the compound, how does the Activity [2] read?
Answer: Non-toxic

Question: And the IC50 (SW480)?
Answer: 14.2 µM

Question: And the Activity [3]?
Answer: Non-toxic

Question: And the IC50 (CT26)?
Answer: 3.35 µM

Question: And the Activity [4]?
Answer: Non-toxic

Question: And the IC50 (PANC-1)?
Answer: 14.7 µM

Question: What about the IC50 (HepG2) of the same compound?
Answer: 21.9 µM

Question: And the Activity [5]?
Answer: Toxic

Question: And the IC50 (HeLa)?
Answer: 4.48 µM

Question: And the Activity [6]?
Answer: Non-toxic

Question: What about the Activity [7] of the same compound?
Answer: Non-toxic

Question: With `C=C(C(=O)OC)N1c2nc(Cl)nc(Cl)c2N2C(c3ccccc3Cl)OC(C(=O)OCC)(C(=O)OCC)C12` (racemic) as the compound, how does the IC50 (SW480) read?
Answer: 5.43 µM

Question: What about the IC50 (CT26) of the same compound?
Answer: 1.12 µM

Question: And the IC50 (HCT-116)?
Answer: 0.67 µM

Question: What about the IC50 (PANC-1) of the same compound?
Answer: 4.46 µM

Question: What about the IC50 (HepG2) of the same compound?
Answer: 3.25 µM

Question: What about the IC50 (HeLa) of the same compound?
Answer: 0.89 µM

Question: What about the IC50 (MCF7) of the same compound?
Answer: 1.9 µM

Question: For `C=C(C(=O)OC)N1c2nc(Cl)nc(Cl)c2N2C(c3ccccc3Br)OC(C(=O)OCC)(C(=O)OCC)C12` (racemic), which IC50 (SW480) is on record?
Answer: 6.99 µM

Question: What about the IC50 (CT26) of the same compound?
Answer: 2.5 µM

Question: And the IC50 (HCT-116)?
Answer: 3.11 µM

Question: What about the IC50 (PANC-1) of the same compound?
Answer: 4.61 µM

Question: And the IC50 (HepG2)?
Answer: 4.87 µM

Question: What about the IC50 (HeLa) of the same compound?
Answer: 2.15 µM

Question: What about the IC50 (MCF7) of the same compound?
Answer: 3.49 µM

Question: With `CC[C@H]1C[C@H](C)[C@@]2(NC1=O)O[C@@H](C[C@H](O)[C@@H](C)CC/C=C/C=C(\C)[C@@H]1C/C=C/C=C/[C@H](O)[C@H](C)[C@@H](O)[C@@H](CCC(C)=O)C(=O)N[C@@H](C(C)C)C(=O)N[C@@H](Cc3cc(O)cc(F)c3)C(=O)N3CCC[C@H](N3)C(=O)O1)[C@H](C)[C@H](O)[C@@H]2C` as the compound, how does the IC50 [8] read?
Answer: 0.00049 µM

Question: With `C/C=C/C[C@@H](C)[C@@H](O)[C@H]1C(=O)N[C@@H](CC)C(=O)N(C)CC(=O)N(C)[C@@H](CC(C)C)C(=O)N[C@@H](C(C)C)C(=O)N(C)[C@@H](CC(C)C)C(=O)N[C@@H](C)C(=O)N[C@H](C)C(=O)N(C)[C@@H](CC(C)C)C(=O)N(C)[C@@H](CC(C)C)C(=O)N(C)[C@@H](C(C)C)C(=O)N1C` [CYCLOSPORINE] as the compound, how does the IC50 (SW480) read?
Answer: 5.16 µM

Question: And the IC50 (CT26)?
Answer: 11.4 µM

Question: And the IC50 (PANC-1)?
Answer: 13.3 µM

Question: What about the IC50 (HepG2) of the same compound?
Answer: 12.3 µM

Question: And the IC50 (HeLa)?
Answer: 2.17 µM

Question: And the IC50 (MCF7)?
Answer: 6.12 µM

Question: Which IC50 (HCT-116) does the source give for `CCOC(=O)/C=C/N1c2nc(F)nc(Cl)c2N2C(c3ccccc3)OC(C(=O)OCC)(C(=O)OCC)C12` (racemic) here?
Answer: 18.6 µM

Question: What about the IC50 (HeLa) of the same compound?
Answer: 18.3 µM

Question: For `CCOC(=O)/C=C/N1c2nc(Cl)nc(N)c2N2C(c3ccccc3)OC(C(=O)OCC)(C(=O)OCC)C12` (racemic), which IC50 (HCT-116) is on record?
Answer: > 50 µM

Question: What about the IC50 (HeLa) of the same compound?
Answer: > 50 µM

Question: Which IC50 (HCT-116) does the source give for `CCCSc1nc(Cl)nc2c1N1C(c3ccccc3)OC(C(=O)OCC)(C(=O)OCC)C1N2/C=C/C(=O)OCC` (racemic) here?
Answer: > 50 µM

Question: And the IC50 (HeLa)?
Answer: > 50 µM

Question: For `C.CC[C@@H]1NC(=O)[C@H]([C@H](O)[C@H](C)CCCCCCNC(C)=O)N(C)C(=O)[C@H](C(C)C)N(C)C(=O)[C@H](CC(C)C)N(C)C(=O)[C@H](CC(C)C)N(C)C(=O)[C@@H](C)NC(=O)[C@H](C)NC(=O)[C@H](CC(C)C)N(C)C(=O)[C@H](C(C)C)NC(=O)[C@H](CC(C)C)N(C)C(=O)[C@@H](C)N(C)C1=O`, which Ki [9] is on record?
Answer: 0.0025 µM

Question: For `CCOC(=O)/C=C/N1c2nc(Cl)nc(Cl)c2N2C(c3cccs3)OC(C(=O)OCC)(C(=O)OCC)C12` (racemic), which IC50 (HCT-116) is on record?
Answer: > 50 µM

Question: What about the IC50 (HeLa) of the same compound?
Answer: > 50 µM

Question: Which results are given for `CCOC(=O)/C=C/N1c2nc(Cl)nc(OC)c2N2C(c3ccccc3)OC(C(=O)OCC)(C(=O)OCC)C12` (racemic)?
Answer: IC50 (HCT-116): > 50 µM; IC50 (HeLa): > 50 µM

Question: Which results are given for `CCOC(=O)/C=C/N1c2nc(Cl)nc(Cl)c2N2C(c3cccc(C)c3)OC(C(=O)OCC)(C(=O)OCC)C12` (racemic)?
Answer: IC50 (HCT-116): 10.4 µM; IC50 (HeLa): 26.2 µM

Question: What does the source list for `CCOC(=O)/C=C/N1c2nc(Cl)nc(Cl)c2N2C(c3cccc(C(F)(F)F)c3)OC(C(=O)OCC)(C(=O)OCC)C12` (racemic)?
Answer: IC50 (HCT-116): 3.56 µM; IC50 (HeLa): 10 µM

Question: For `CCOC(=O)/C=C/N1c2ncnc(Cl)c2N2C(c3ccccc3)OC(C(=O)OCC)(C(=O)OCC)C12` (racemic), which IC50 (HCT-116) is on record?
Answer: 34 µM

Question: And the IC50 (HeLa)?
Answer: > 50 µM

Question: Which IC50 (HCT-116) does the source give for `CCOC(=O)/C=C\N1c2nc(Cl)nc(Cl)c2N2C(c3ccccc3)OC(C(=O)OCC)(C(=O)OCC)C12` (centres undefined) here?
Answer: > 50 µM

Question: What about the IC50 (HeLa) of the same compound?
Answer: > 50 µM

Question: Which IC50 (HCT-116) does the source give for `CCOC(=O)/C=C/N1c2nc(Cl)nc(Cl)c2N2C(c3ccc4ccccc4c3)OC(C(=O)OCC)(C(=O)OCC)C12` (racemic) here?
Answer: > 50 µM

Question: And the IC50 (HeLa)?
Answer: > 50 µM

— ChEMBL document CHEMBL6103618, “Discovery of Novel Oxazolo[4,3-f]purine Derivatives as Antitumor Agents through PPIA Interaction” (J Med Chem, 2025)
